Patent publication US4495188A, “Acylaminoquinazoline derivatives and a pharmaceutical composition containing them” (Sankyo Company Limited, priority 1980, dated 1985)
Where a name gives a salt, the structure may show the parent alone. Read-outs that look alike come from different tables or passages of the source.

Experiments:
[1] = target: T1, angiotension I-converting enzyme (ACE) (Oryctolagus cuniculus, UniProt P12822); assay: Measurement of inhibitory activity against the angiotension I-converting enzyme (ACE), hippuryl-l-histidyl-l-leucine as substrate; assay type: biochemical, rabbit
T1 construct: The ACE solution was prepared by homogenizing 5 g of acetone powders of rabbit lungs; tissue Sigma Chemical Co; host or cells: rabbit lung (acetone powder, borate buffer extract, 40,000 G supernatant)
T1 sequence (P12822 34-1310): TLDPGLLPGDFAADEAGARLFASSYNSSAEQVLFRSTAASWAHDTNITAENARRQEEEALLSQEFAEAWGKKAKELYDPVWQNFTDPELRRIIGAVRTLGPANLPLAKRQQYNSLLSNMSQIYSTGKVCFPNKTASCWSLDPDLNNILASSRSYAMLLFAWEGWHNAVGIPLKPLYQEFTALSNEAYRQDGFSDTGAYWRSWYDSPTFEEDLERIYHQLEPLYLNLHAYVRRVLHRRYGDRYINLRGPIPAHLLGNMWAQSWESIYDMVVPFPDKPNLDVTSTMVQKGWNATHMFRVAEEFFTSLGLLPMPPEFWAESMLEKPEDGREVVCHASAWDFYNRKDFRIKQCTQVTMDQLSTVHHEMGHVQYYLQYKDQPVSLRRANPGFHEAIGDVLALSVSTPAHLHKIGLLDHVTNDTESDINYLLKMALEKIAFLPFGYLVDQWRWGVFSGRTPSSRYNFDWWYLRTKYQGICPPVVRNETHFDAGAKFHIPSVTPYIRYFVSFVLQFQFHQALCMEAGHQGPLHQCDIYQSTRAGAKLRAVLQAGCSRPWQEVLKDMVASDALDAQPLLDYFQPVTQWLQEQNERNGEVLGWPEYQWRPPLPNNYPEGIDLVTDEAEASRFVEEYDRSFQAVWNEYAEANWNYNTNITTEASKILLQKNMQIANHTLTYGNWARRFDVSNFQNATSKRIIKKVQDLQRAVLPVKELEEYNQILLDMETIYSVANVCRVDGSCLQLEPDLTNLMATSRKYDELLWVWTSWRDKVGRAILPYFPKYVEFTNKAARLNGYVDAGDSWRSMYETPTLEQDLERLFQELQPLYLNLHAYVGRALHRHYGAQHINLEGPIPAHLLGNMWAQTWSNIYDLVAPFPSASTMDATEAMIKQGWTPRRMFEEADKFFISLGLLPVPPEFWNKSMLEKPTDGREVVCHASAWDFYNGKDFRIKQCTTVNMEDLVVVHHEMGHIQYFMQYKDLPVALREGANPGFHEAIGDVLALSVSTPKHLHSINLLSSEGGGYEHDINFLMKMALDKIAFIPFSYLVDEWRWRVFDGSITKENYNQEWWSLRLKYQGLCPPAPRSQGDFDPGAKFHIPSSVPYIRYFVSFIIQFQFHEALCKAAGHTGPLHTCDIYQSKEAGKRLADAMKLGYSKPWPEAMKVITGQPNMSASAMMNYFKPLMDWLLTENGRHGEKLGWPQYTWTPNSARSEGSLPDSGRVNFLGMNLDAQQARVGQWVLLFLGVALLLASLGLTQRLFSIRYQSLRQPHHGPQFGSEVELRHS
Procedure: The inhibitory activities of compounds of the invention and of the known compound, prazosin, against the angiotension I-converting enzyme (ACE) were measured by the method of D. W. Cushman and H. S. Cheung [Biochem. Pharmacol. 20, 637 (1971)], using hippuryl-l-histidyl-l-leucine as a substrate. The reaction mixture consisted of 225 μl of a 0.1 M borate buffer solution (pH 8.3) containing 0.4 M sodium chloride, 25 μl of the substrate (12.5 mM solution), 25 μl of a partially purified ACE and 25 μl of a test compound solution (prepared from a 1 mg/ml aqueous acetone solution of the compound). This reaction mixture was maintained at 37° C. for 30 minutes, after which 300 μl of 1N hydrochloric acid were added in order to stop the reaction. 2 ml of ehtyl acetate were then added and the mixture was stirred for 10 seconds and then centrifuged at 3,000 rpm for 5 minutes. 1.5 ml of the ethyl acetate layer was separated and concentrated by evaporation to dryness. The residue was dissolved in 1 ml of distilled water and the quantity of hippuric acid in this solution was measured from its absorbance at 228 mμ, using a spectrophotometer.
The ACE solution was prepared by homogenizing 5 g of acetone powders of rabbit lungs (a product of Sigma Chemical Co., U.S.A., prepared by homogenizing rabbit lungs in a buffer solution and separating out the enzymes precipitated with acetone) in 50 ml of a borate buffer solution (pH 8.3), centrifuging the mixture at 40,000 G for 30 minutes and then separating the supernatant.
The inhibitory activity against ACE was calculated from the formula: [formula] in which Ac is the absorbance of the control and As is the absorbance of the sample. Inhibition curves were made for each sample by measuring the inhibitory activity at five different concentrations, prepared by two-fold dilutions. The IC50 values, which are the molar concentrations of the compounds required to inhibit the ACE activity by 50%, were calculated for each compound.

[2] = tested on: angiotensin I-converting enzyme; conditions: reported by Cushman et al.; cited from earlier work
hypertensive animals = conditions: reported by Cushman et al.; cited from earlier work
[3] = pH 8.3, 37° C., 30 minutes, partially purified ACE from rabbit lungs, read-out: Inhibitory concentration IC50

| SMILES | IC50 [1, 3] [nM] | also measured |
| --- | --- | --- |
| COc1cc2nc(N3CCN(C(=O)C(C)Oc4ccccc4)CC3)nc(NC(=O)[C@@H]3CCCN3C(=O)[C@H](C)CSC(C)=O)c2cc1OC (stereo partly drawn) [Example 3, 4-[1-(D-3-Acetylthio-2-methylpropanoyl)-L-prolyl]amino-6,7-dimethoxy-2[4-(2-phenoxypropionyl)-1-piperazinyl]quinazoline hydrochloride hydrate] | 341 | – |
| C[C@H](CS)C(=O)N1CCC[C@H]1C(=O)O [1-(D-3-mercapto-2-methylpropanoyl)-L-proline] | – | inhibitory activity against the angiotensin I-converting enzyme [2]: potent inhibitory activity; antihypertensive activity (hypertensive animals): exhibits antihypertensive activity |
| CCOC(=O)N1CCN(c2nc(NC(=O)C3CSCN3C(=O)C(C)CSC(C)=O)c3cc(OC)c(OC)cc3n2)CC1 (racemic) [Example 6, 4-[3-(DL-3-Acetylthio-2-methylpropanoyl)thiazolidine-4-carbonyl]amino-2-(4-ethoxycarbonyl-1-piperazinyl)-6,7-dimethoxyquinazoline hydrochloride hemihydrate] | 1410 | – |
| COc1cc2nc(N3CCN(C(=O)c4ccco4)CC3)nc(N)c2cc1OC [prazosin, reference compound] | – | IC50 [1]: ≥ 10000 nM |

Further lines, with some results ahead:

| IC50 [1, 3] [nM] | SMILES | also measured |
| --- | --- | --- |
| 360 | C/C=C/C(=O)N1CCN(c2nc(NC(=O)[C@@H]3CCCN3C(=O)[C@H](C)CSC(C)=O)c3cc(OC)c(OC)cc3n2)CC1 [Example 2, 4[1-(D-3-Acetylthio-2-methylpropanoyl)-L-prolyl]amino-2-(4-crotonoyl-1-piperazinyl)-6,7-dimethoxyquinazoline. hydrochloride hydrate] | – |
| 261 | COc1ccc(C(=O)N2CCN(c3nc(NC(=O)[C@@H]4CCCN4C(=O)[C@H](C)CSC(C)=O)c4cc(OC)c(OC)cc4n3)CC2)cc1OC [Example 5, 4-[1-(D-3-Acetylthio-2-methylpropanoyl)-L-prolyl]amino-2-(4-(3,4-dimethoxybenzoyl)-1-piperazinyl]-6,7-dimethoxy-quinazoline hydrochloride sesquihydrate] | – |
| 445 | COc1cc2nc(N3CCN(C(=O)c4ccc(OCc5ccccc5)cc4)CC3)nc(NC(=O)[C@@H]3CCCN3C(=O)[C@H](C)CSC(C)=O)c2cc1OC [Example 4, 4-[1-(D-3-Acetylthio-2-methylpropanoyl)-L-prolyl]amino-2-[4-(4-benzyloxybenzoyl)-1-piperazinyl]-6,7-dimethoxy-quinazcline hydrochloride sesquihydrate] | – |
| 310 | COc1cc2nc(N3CCN(C(=O)c4ccco4)CC3)nc(NC(=O)[C@@H]3CCCN3C(=O)[C@H](C)CSC(C)=O)c2cc1OC [Example 7, 4-[1-(D-3-Acetylthio-2-methylpropanoyl)-L-prolyl]amino-2-[4-(2-furoyl)-1-piperazinyl]-6,7-dimethoxyquinazoline.hydrochloride.hydrate] | – |
| 416 | CCOC(=O)N1CCN(c2nc(NC(=O)[C@@H]3CCCN3C(=O)[C@H](C)CSC(C)=O)c3cc(OC)c(OC)cc3n2)CC1 [Example 1, 4[1-(D-3-Acetylthio-2-methylpropanoyl)-L-prolyl]amino-2-(4-ethoxycarbonyl-1-piperazinyl)-6,7-dimethoxy-quinazoline hydrochloride hemihydrate] | – |
